# Laboratory results from the NIST ThermoML archive (doi:10.1016/j.jct.2007.11.008).
# ± gives the expanded uncertainty stated by the source.
# Assay: molar enthalpy of vaporization or sublimation
# Conditions: 298 K; Crystal; Static calorimetry
row,SMILES,molar enthalpy [kcal/mol]
1,CC(C)CN(CC(C)C)C(=S)NC(=O)c1cccs1,48.57 ± 0.263
2,CCCCN(CCCC)C(=S)NC(=O)c1cccs1 [N-((dibutylamino)thioxomethyl)-2-thiophenecarboxamide],48.92 ± 0.263
